Results from US10556905B2, “Processes for preparing a diazabicyclooctane compound” (priority 2012, dated 2020).
In brackets after ≈: the same amount, converted by molar mass. Like-named read-outs stand apart in the source and are kept apart here.

What was measured:
[1] = test system: sensitive tuberculosis (H37Rv); assay: Anti-tubercle bacillus activity, liquid medium dilution MIC; format: cell-based; conditions: for MIC: Mycobacterium tuberculosis, 168 h, alone, 7 days at 37° C., read-out: antibacterial activity (MIC) of β-lactam agent alone
KPC-2 = biological target: T1, KPC-2 (Klebsiella pneumoniae, UniProt Q9F663); assay: β-Lactamase inhibitory activity (nitrocefin hydrolysis), KPC-2; format: biochemical; conditions: KPC-2 0.5 nM, 100 μM nitrocefin, pre-incubation 30° C. 10 minutes
T1 construct: AmpC, TEM-1, KPC-2 or OXA-2 domain excluding signal peptide was amplified with PCR; made in house; host or cells: Escherichia coli BL21 (DE3), pET-28b(+)
T1 sequence (Q9F663 25-293, looked up): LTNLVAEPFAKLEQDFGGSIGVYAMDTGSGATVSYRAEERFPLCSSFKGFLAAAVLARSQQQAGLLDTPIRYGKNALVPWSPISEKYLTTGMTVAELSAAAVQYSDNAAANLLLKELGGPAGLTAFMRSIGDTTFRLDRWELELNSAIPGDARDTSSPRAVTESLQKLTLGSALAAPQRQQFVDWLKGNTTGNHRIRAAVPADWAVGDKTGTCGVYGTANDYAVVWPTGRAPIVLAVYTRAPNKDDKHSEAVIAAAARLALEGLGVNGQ

OXA-2 = biological target: T2, OXA-2 (Escherichia coli, UniProt P0A1V9); assay: biochemical; parameters: species or system P. aeruginosa
T2 construct: AmpC, TEM-1, KPC-2 or OXA-2 domain excluding signal peptide was amplified with PCR; made in house; host or cells: Escherichia coli BL21 (DE3), pET-28b(+)
T2 sequence (P0A1V9 22-275): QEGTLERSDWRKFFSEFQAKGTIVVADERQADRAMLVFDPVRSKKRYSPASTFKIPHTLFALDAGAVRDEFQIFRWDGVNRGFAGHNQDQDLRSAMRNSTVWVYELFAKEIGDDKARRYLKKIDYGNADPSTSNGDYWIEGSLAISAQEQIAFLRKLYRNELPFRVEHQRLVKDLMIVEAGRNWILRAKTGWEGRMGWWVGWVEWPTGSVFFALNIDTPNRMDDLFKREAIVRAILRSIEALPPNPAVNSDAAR

TEM-1 = biological target: T3, TEM-1 (Escherichia coli, UniProt P62593); assay: β-Lactamase inhibitory activity (nitrocefin hydrolysis), TEM-1; format: biochemical; conditions: TEM-1 0.1 nM, 100 μM nitrocefin, pre-incubation 30° C. 10 minutes
T3 construct: AmpC, TEM-1, KPC-2 or OXA-2 domain excluding signal peptide was amplified with PCR; made in house; host or cells: Escherichia coli BL21 (DE3), pET-28b(+)
T3 sequence (P62593 24-286 limits assumed): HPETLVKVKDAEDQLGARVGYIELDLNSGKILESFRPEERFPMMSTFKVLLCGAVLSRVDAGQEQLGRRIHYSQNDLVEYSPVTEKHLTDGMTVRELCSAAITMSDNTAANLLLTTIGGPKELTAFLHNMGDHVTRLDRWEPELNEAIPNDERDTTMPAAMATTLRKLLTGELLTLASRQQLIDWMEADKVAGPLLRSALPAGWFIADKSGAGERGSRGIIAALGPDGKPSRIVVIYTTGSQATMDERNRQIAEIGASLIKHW
Summary of the method: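 Scored as letter classes from <0.1 μM (A) through ≥10 μM (E). Nitrocefin breakdown (100 μM final) by E. coli-expressed, signal-peptide-free TEM-1 was followed at 492 nm after 20 min at 30° C. The buffer was 50 mM phosphate pH 7.0, 10 μg/mL BSA, 2.5% DMSO.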

AmpC = biological target: T4, AmpC (Pseudomonas aeruginosa, UniProt P24735); assay: biochemical
T4 construct: AmpC, TEM-1, KPC-2 or OXA-2 domain excluding signal peptide was amplified with PCR; made in house; host or cells: Escherichia coli BL21 (DE3), pET-28b(+)
T4 sequence (P24735 27-397): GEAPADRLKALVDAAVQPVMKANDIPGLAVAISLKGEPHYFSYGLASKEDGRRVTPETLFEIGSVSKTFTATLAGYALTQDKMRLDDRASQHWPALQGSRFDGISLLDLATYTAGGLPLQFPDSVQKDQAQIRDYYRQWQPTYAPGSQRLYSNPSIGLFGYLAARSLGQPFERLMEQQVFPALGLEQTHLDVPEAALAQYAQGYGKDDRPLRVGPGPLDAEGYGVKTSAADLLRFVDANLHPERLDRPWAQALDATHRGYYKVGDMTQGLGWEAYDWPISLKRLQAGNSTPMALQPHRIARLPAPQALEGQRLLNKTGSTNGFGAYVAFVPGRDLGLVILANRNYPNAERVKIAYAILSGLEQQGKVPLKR

E. coli MSC19503 = assay: microbe, parasite or virus in culture; format: cell-based; conditions: Escherichia coli, alone, CTX-M-15 (ESBL) and OXA-1 producing E. coli, agar plate dilution, read-out: antibacterial activity (MIC) of PIPC alone
[2] = test system: P. aeruginosa ATCCBAA-47CR; assay: microbe, parasite or virus in culture; format: cell-based; conditions: Pseudomonas aeruginosa, ATCCBAA47CR; alone; AmpC constitutively-expressing P. aeruginosa; agar plate dilution; read-out: antibacterial activity (MIC) of PIPC alone
[3] = test system: K. pneumoniae ATCCBAA-1705; assay: microbe, parasite or virus in culture; conditions: Klebsiella pneumoniae, ATCCBAA1705, read-out: antibacterial activity (MIC) of PIPC alone
[4] = OXA-2 2 nM, 100 μM nitrocefin, pre-incubation 30° C. 10 minutes, read-out: β-Lactamase inhibitory activity OXA-2 (IC50)

| SMILES | IC50 (KPC-2) [µM] | IC50 (OXA-2; [4]) [µM] | IC50 (TEM-1) [µM] | IC50 (AmpC) [µM] | IC50 (OXA-2) [µM] | further results |
| --- | --- | --- | --- | --- | --- | --- |
| CC1(C)S[C@@H]2[C@H](NC(=O)[C@H](N)c3ccccc3)C(=O)N2[C@H]1C(=O)O [ABPC, ampicillin, reference compound] | – | – | – | – | – | MIC [1]: 16 mg/L (≈ 45.8 µM) |
| CC1(C)S[C@@H]2[C@H](NC(=O)[C@H](N)c3ccc(O)cc3)C(=O)N2[C@H]1C(=O)O [AMPC, amoxicillin, reference compound] | – | – | – | – | – | MIC [1]: 16 mg/L (≈ 43.8 µM) |
| C[C@@H](O)[C@H]1C(=O)N2C(C(=O)[O-])=C(SC3Cn4cnc[n+]4C3)[C@H](C)[C@H]12 (some centres unmarked) [BIPM, biapenem, reference compound] | – | – | – | – | – | MIC [1]: 1 mg/L (≈ 2.85 µM) |
| NCCONC(=O)[C@@H]1CC[C@@H]2CN1C(=O)N2OS(=O)(=O)O [Example 59, (2S,5R)—N-(2-Aminoethoxy)-7-oxo-6-(sulfooxy)-1,6-diazabicyclo[3.2.1]octane-2-carboxamide] | 0.1 to 1 | 1 to 3 | < 0.1 | 0.1 to 1 | – | antibacterial activity (MIC) of ABPC in combinatorial use ([1]; ABPC + 4 μg/mL compound): 2 mg/L; antibacterial activity (MIC) of AMPC in combinatorial use ([1]; AMPC + 4 μg/mL compound): 2 mg/L; antibacterial activity (MIC) of BIPM in combinatorial use ([1]; BIPM + 4 μg/mL compound): 1 mg/L; antibacterial activity (MIC) of MEPM in combinatorial use ([1]; MEPM + 4 μg/mL compound): 0.5 mg/L; antibacterial activity (MIC) of TBPM in combinatorial use ([1]; TBPM + 4 μg/mL compound): 0.25 mg/L |
| O=C(NOCC1CNC1)[C@@H]1CC[C@@H]2CN1C(=O)N2OS(=O)(=O)O [Example 82, (2S,5R)—N-(Azetidin-3-ylmethoxy)-7-oxo-6-(sulfooxy)-1,6-diazabicyclo[3.2.1]octane-2-carboxamide] | 0.1 to 1 | 0.1 to 1 | < 0.1 | < 0.1 | – | – |
| O=C(NOC[C@@H]1CCCNC1)[C@@H]1CC[C@@H]2CN1C(=O)N2OS(=O)(=O)O [Example 83, (2S,5R)-7-Oxo-N-[(3R)-piperidine-3-ylmethoxy]-6-(sulfooxy)-1,6-diazabicyclo[3.2.1]octane-2-carboxamide] | 0.1 to 1 | 0.1 to 1 | < 0.1 | < 0.1 | – | – |
| O=C(NOC1CCNCC1)[C@@H]1CC[C@@H]2CN1C(=O)N2OS(=O)(=O)O [Example 84, (2S,5R)-7-Oxo-N-(piperidine-4-yloxy)-6-(sulfooxy)-1,6-diazabicyclo[3.2.1]octane-2-carboxamide] | 1 to 3 | 0.1 to 1 | < 0.1 | < 0.1 | – | – |
| O=C(NOCC1CCNCC1)[C@@H]1CC[C@@H]2CN1C(=O)N2OS(=O)(=O)O [Example 85, (2S,5R)-7-Oxo-N-(piperidine-4-ylmethoxy)-6-(sulfooxy)-1,6-diazabicyclo[3.2.1]octane-2-carboxamide] | 0.1 to 1 | 0.1 to 1 | < 0.1 | < 0.1 | – | – |
| O=C(NOCCn1cccc1)[C@@H]1CC[C@@H]2CN1C(=O)N2OS(=O)(=O)O [Example 87, Sodium (2S,5R)-7-oxo-N-[2-(1H-pyrrol-1-yl)ethoxy]-6-(sulfooxy)-1,6-diazabicyclo[3.2.1]octane-2-carboxamide] | < 0.1 | – | < 0.1 | < 0.1 | 0.1 to 1 | – |
| O=C(NOCCn1ccnc1S(=O)(=O)O)[C@@H]1CC[C@@H]2CN1C(=O)N2OS(=O)(=O)O [Example 88, Disodium 1-{2-[({[(2S,5R)-7-oxo-6-(sulfonateoxy)-1,6-diazabicyclo[3.2.1]oct-2-yl]carbonyl}amino)oxy]ethyl}-1H-Imidazol-2-sulfonate] | 0.1 to 1 | 0.1 to 1 | < 0.1 | 0.1 to 1 | – | – |
| CN(C)C(=O)CONC(=O)[C@@H]1CC[C@@H]2CN1C(=O)N2OS(=O)(=O)O [Example 89, Sodium (2S,5R)—N-[2-(dimethylamino)-2-oxoethoxy]-7-oxo-6-(sulfooxy)-1,6-diazabicyclo[3.2.1]octane-2-carboxamide] | < 0.1 | – | < 0.1 | < 0.1 | 0.1 to 1 | – |
| O=C(NOCC(=O)N1CCNCC1)[C@@H]1CC[C@@H]2CN1C(=O)N2OS(=O)(=O)O [Example 90, (2S,5R)-7-Oxo-N-[2-oxo-2-(piperazin-1-yl)ethoxy]-6-(sulfooxy)-1,6-diazabicyclo[3.2.1]octane-2-carboxamide] | 0.1 to 1 | 0.1 to 1 | < 0.1 | < 0.1 | – | – |
| O=C(NOCC(=O)N1CCOCC1)[C@@H]1CC[C@@H]2CN1C(=O)N2OS(=O)(=O)O [Example 91, Sodium (2S,5R)—N-[2-(morpholin-4-yl)-2-oxoethoxy]-7-oxo-6-(sulfooxy)-1,6-diazabicyclo[3.2.1]octane-2-carboxamide] | < 0.1 | – | < 0.1 | < 0.1 | 0.1 to 1 | – |
| O=C(NOCC(=O)N1CCCNCC1)[C@@H]1CC[C@@H]2CN1C(=O)N2OS(=O)(=O)O [Example 92, (2S,5R)—N-[2-(1,4-Diazepan-1-yl)-2-oxoethoxy]-7-oxo-6-(sulfooxy)-1,6-diazabicyclo[3.2.1]octane-2-carboxamide] | 0.1 to 1 | 0.1 to 1 | < 0.1 | < 0.1 | – | – |
| O=C(NOCCN1CCCC1=O)[C@@H]1CC[C@@H]2CN1C(=O)N2OS(=O)(=O)O [Example 93, Sodium (2S,5R)-7-oxo-N-[2-(2-oxopyrrolidin-1-yl)ethoxy]-6-(sulfooxy)-1,6-diazabicyclo[3.2.1]octane-2-carboxamide] | 0.1 to 1 | – | < 0.1 | < 0.1 | 0.1 to 1 | – |
| O=C(NOCCN1CCNC1=O)[C@@H]1CC[C@@H]2CN1C(=O)N2OS(=O)(=O)O [Example 94, Sodium (2S,5R)-7-oxo-N-[2-(2-oxoimidazolidin-1-yl)ethoxy]-6-(sulfooxy)-1,6-diazabicyclo[3.2.1]octane-2-carboxamide] | 0.1 to 1 | – | < 0.1 | < 0.1 | 0.1 to 1 | – |
| O=C(NOCCO)[C@@H]1CC[C@@H]2CN1C(=O)N2OS(=O)(=O)O [Example 95, Sodium (2S,5R)—N-(2-hydroxyethoxy)-7-oxo-6-(sulfooxy)-1,6-diazabicyclo[3.2.1]octane-2-carboxamide] | < 0.1 | – | < 0.1 | < 0.1 | 1 to 3 | – |
| COCCONC(=O)[C@@H]1CC[C@@H]2CN1C(=O)N2OS(=O)(=O)O [Example 96, Sodium (2S,5R)—N-(2-methoxyethoxy)-7-oxo-6-(sulfooxy)-1,6-diazabicyclo[3.2.1]octane-2-carboxamide] | 0.1 to 1 | – | < 0.1 | < 0.1 | 1 to 3 | – |
| CS(=O)(=O)CCONC(=O)[C@@H]1CC[C@@H]2CN1C(=O)N2OS(=O)(=O)O [Example 97, Sodium (2S,5R)—N-[2-(methylsulfonyl)ethoxy]-7-oxo-6-(sulfooxy)-1,6-diazabicyclo[3.2.1]octane-2-carboxamide] | < 0.1 | – | < 0.1 | < 0.1 | 0.1 to 1 | – |
| C[C@@H](O)[C@H]1C(=O)N2C(C(=O)O)=C(S[C@@H]3CN[C@H](C(=O)N(C)C)C3)[C@H](C)[C@H]12 [MEPM, meropenem, reference compound] | – | – | – | – | – | MIC [1]: 1 mg/L (≈ 2.61 µM) |
| CCN1CCN(C(=O)N[C@@H](C(=O)N[C@@H]2C(=O)N3[C@@H]2SC(C)(C)[C@@H]3C(=O)O)c2ccccc2)C(=O)C1=O [PIPC, piperacillin] | – | – | – | – | – | MIC (E. coli MSC19503): > 128 mg/L; MIC [2]: 64 mg/L (≈ 124 µM); MIC [3]: > 128 mg/L |
| C[C@@H](O)[C@H]1C(=O)N2C(C(=O)O)=C(SC3CN(C4=NCCS4)C3)[C@H](C)[C@H]12 [TBPM, tebipenem, reference compound] | – | – | – | – | – | MIC [1]: 0.5 mg/L (≈ 1.3 µM) |
